Results from publication PMC8775380, “A Complexed Crystal Structure of a Single-Stranded DNA-Binding Protein with Quercetin and the Structural Basis of Flavonol Inhibition Specificity” (International Journal of Molecular Sciences, 2022).

Experiments:
[1] = target: T1, Pseudomonas aeruginosa single-stranded DNA-binding protein (PaSSB) (Pseudomonas aeruginosa, UniProt P40947); test: EMSA, inhibition of PaSSB binding to biotin-labeled dT35 ssDNA; assay type: biochemical; set-up: gene ssb; purified recombinant PaSSB
T1 sequence (P40947 2-165): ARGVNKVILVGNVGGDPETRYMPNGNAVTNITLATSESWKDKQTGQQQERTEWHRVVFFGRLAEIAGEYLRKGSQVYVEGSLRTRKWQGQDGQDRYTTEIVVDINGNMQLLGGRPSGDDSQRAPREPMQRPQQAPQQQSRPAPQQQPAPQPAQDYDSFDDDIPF

[2] = target: T1, Pseudomonas aeruginosa single-stranded DNA-binding protein (PaSSB); test: X-ray crystal structure of the complex, […] Å; set-up: gene ssb; recombinant PaSSB; amino acids 114–165 not observed in the structure
[3] = target: PaSSB (single-stranded DNA-binding protein) (Pseudomonas aeruginosa, UniProt P40947 1-165); test: EMSA; no flavonol; protein concentration at 50% bound; EMSA: 40 mM Tris-HCl pH 7.5, 50 mM NaCl, 37 °C 60 min, DNA 30 fmol/uL, PaSSB 0-5 uM; 8% native PAGE in TBE; flavonols dissolved in 10% DMSO; conditions: protein: recombinant; chain copies: 4; label: biotin (3' in Results, 5' in Methods); single strand

Molecule: O=c1c(O)c(-c2cc(O)c(O)c(O)c2)oc2cc(O)cc(O)c12 [myricetin]
- IC50 [1]: 2800 ± 400 nM

Molecule: O=c1c(O)c(-c2ccc(O)c(O)c2)oc2cc(O)cc(O)c12 [quercetin]
- X-ray crystal structure of the complex, 2.32 Å [2]: The electron density of quercetin was well-defined and indicated the presence of quercetin in the structure of PaSSB

B1: dT35 (ssDNA)
DNA: TTTTTTTTTTTTTTTTTTTTTTTTTTTTTTTTTTT
- apparent K (half saturation) [3]: 548 ± 36 nM
